According to patent publication US8633226B2, “Piperidinyl derivative as a modulator of chemokine receptor activity” (Bristol-Myers Squibb Company, priority 2008, dated 2014):
Like-named read-outs stand apart in the source and are kept apart here.

Legend:
Human PXR = Human PXR (Homo sapiens (Human), UniProt O75469); assay: PXR transactivation assay; assay type: cell-based; conditions: HepG2 cells, CYP3A-Luc reporter; reported as EC60
From the text: The cell culture medium used is DMEM. […] Charcoal/dextran treated fetal bovine serum (FBS) was purchased from Hyclone (Logan, Utah). HepG2 cells were obtained from ATCC (Manassas, Va.). Human PXR-pcDNA3 and luciferase reporter containing CYP3A4 promoter, CYP3A-Luc, were generated at Bristol-Myers Squibb. White tissue culture (TC)-surface 384-well plates were purchased from Perkin Elmer (Boston, Mass.). Luciferase substrate (Steady-Glo) was purchased from Promega (Madison, Wis.). Control compounds rifampicin, mifepristone, and sulfinpyrazone were purchased from Sigma (St. Louis, Mo.).
Culture of HepG2 cells is performed in T175 flasks using DMEM containing 10% FBS. The transfection mixture contains 1 μg/mL of PXR-pcDNA3 plasmid DNA, 20 μg/ml of Cyp3A-Lue plasmid DNA, 90 μL/mL of Lipofectamine 2000, and serum-free medium. After incubating at room temperature for 20 minutes, the transfection mixture (1 ml per flask) is applied to the cells in fresh medium (20 mL per flask), and flasks incubated at 37° C. (5% CO2) overnight.
The flasks are then tapped vigorously to break up cell aggregates. After the addition of 8 mL of DMEM containing 5% charcoal/dextran-treated FBS, the entire mixture is transferred to conical tubes. Cells are then centrifuged at 1000 rpm for 5 minutes. Cell pellets are resuspended to a final count of ˜7×10^6 cells/ml, in freezing media (DMEM containing 20% serum and 10% DMSO). The cell suspension is aliquoted into 15-mL polypropylene tubes, 5 mL per tube. Cells are slowly frozen by placing in a Styrofoam-insulated container at −80° C. overnight. Vials are transferred to an Ultracold (−140° C.) freezer after 24 hours for long-term storage.
Vials of cryopreserved cells are thawed rapidly in a warm water bath for five minutes. Cells are pooled and diluted to 50 mL in a 50-mL conical vial. The thawed cells are centrifuged at 1500 rpm for 5 minutes to collect the cells and the supernatant discarded. Cells are then resuspended in fresh Media II (DMEM containing 5% charcoal/dextran-treated FBS, 1% Penicillin/Streptomycin, 100 μM Non-essential Amino Acids, 1 mM Sodium Pyruvate, and 2 mM L-Glutamine), counted using the Guava Cell Counter, and diluted to 1.6×10^5 cells/ml in the same media.
Fifty microliters of cell mixture is added to wells in columns 1-23 of white tissue-culture treated 384-well plates containing 0.25 μL of test compound dissolved in 100% DMSO. Fifty microliters of Media II is added to wells in column 24. The plates are incubated at 37° C. (5% CO2) for 24 hours, then 5 μL of Alamar Blue reagent (Trek Diagnostics, Cat #00-100) is added to each well. Plates are then incubated an additional two hours at 37° C., 5% CO2 and then one hour at room temperature. […] After the fluorescence is measured, 25 μL of luciferase substrate (Steady-Glo, Promega) is added to each well. The plates are incubated for fifteen minutes at room temperature, after which the luminescence is read on a PheraStar (BMG Labtech) plate reader.
Rifampicin (10 μM), a well-known agonist of PXR, is included in each plate as an internal standard and positive control. The data is then expressed as percent control (% CTRL), where the control signal is the signal from the 10 μM rifampicin and the blank signal is that from the DMSO vehicle. % CTRL=((Compound signal−Blank signal)/(Control signal−Blank signal))*100
The EC50 is defined as the concentration corresponding to half of the maximal response derived from the fitted 20-point curve as determined using a four-parameter logistic regression model. Additionally, compounds may also be reported as EC20 or EC60.

Human CCR1 = Human CCR1 (Homo sapiens (Human), UniProt P32246); assay: Human CCR1 THP-1 binding assay; conditions: [125I]-MIP-1α competition, THP-1 cells
Protocol: For radioligand competition studies, a final concentration of 1×10^5 THP-1 monocytic leukemia cells are combined with 100 μg of LS WGA PS beads (Amersham, Cat.#: RPNQ 0260) in 40 μL of assay buffer (RPMI 1640 without phenol red, 50 mM HEPES, 5 mM MgCl2, 1 mM CaCl2, 0.1% BSA). The THP-1 cell/bead mixture was added to each well of a 384-well assay plate (PerkinElmer, Cat. #:6007899) containing test compound in 3-fold serial dilution, with final concentrations ranging from 8 μM to 0.14 nM. A final concentration of 0.1 nM [^125I]-MIP-1α (PerkinElmer, Cat. #NEX298) in 20 μL assay buffer was added to the reaction. Unlabeled MIP-1α was added in excess to some wells to determine non-specific binding. Sealed assay plates were incubated at room temperature for 12 h then analyzed by LEADseeker™.
The competition data of the test compound over a range of concentrations is plotted as percentage inhibition of radioligand specifically bound in the absence of test compound (percent of total signal). After correcting for non-specific binding, IC50 values are determined. The IC50 value is defined as the concentration of test compound needed to reduce [^125I]-MIP-1α specific binding by 50% and is calculated using the four parameter logistic equation to fit the normalized data. The Ki values are determined by application of the Cheng-Prusoff equation to the IC50 values, where Ki=IC50/(1+ligand concentration/Kd). The Kd of [^125I]-MIP-1α in THP-1 cells is 0.1 nM. Each experiment was run in duplicate.

[1] = In vitro metabolism assay, human liver microsomes, Assay Conditions A; assay type: in vitro ADME; conditions: 0.5 μM compound, 10 minutes, 37° C.
Protocol: Test compound is received as a 3.5 mM stock solution in 100 percent DMSO. Compound is diluted to create a 50 μM acetonitrile (ACN) solution containing 1.4% DMSO, which is then used as a 100× stock for incubation with microsomes. Each compound is tested in duplicate separately in each of three species in the Metabolic Stability-Human, Rat, and Mouse assay suite or as individual species in the Metabolic Stability-Dog or Metabolic Stability-Monkey suites. Compound, NADPH and liver microsome solutions are combined for incubation in three steps:
152 μL of liver microsome suspension, protein concentration of 1.1 mg/mL in 100 mM NaPi, pH 7.4, 6.6 mM MgCl2 buffer, is pre-warmed at 37° C.
• 1) 1.7 μL of 50 μM compound (98.6% ACN, 1.4% DMSO) is added to the same tube and pre-incubated at 37° C. for 5 minutes. • 2) The reaction is initiated by the addition of 17 μL of pre-warmed 10 mM NADPH solution in 100 mM NaPi, pH 7.4. • 3) Reaction components are mixed well, and 75 μL are immediately transferred into 150 μl quench/stop solution (zero-time point, T0). Reactions are incubated at 37° C. for 10 minutes and then an additional 75 μL aliquot is transferred into 150 μL quench solution. Acetonitrile containing 100 μM DMN (a UV standard for injection quality control), is used as the quench solution to terminate metabolic reactions. • 4) Quenched mixtures are centrifuged at 1500 rpm (˜500×g) in an Allegra X-12 centrifuge, SX4750 rotor (Beckman Coulter Inc., Fullerton, Calif.) for fifteen minutes to pellet denatured microsomes. A volume of 90 μL of supernatant extract, containing the mixture of parent compound and its metabolites, is then transferred to a separate 96-well plate for UV-LC/MS-MS analysis to determine the percent of parent compound that is remaining in the mixture. • 5)

Protein binding, human = assay type: in vitro ADME
Protein binding, rabbit = assay type: in vitro ADME
[2] = target: human cardiac sodium channel SCN5A (Homo sapiens (Human), UniProt Q14524); assay: Sodium channel whole-cell patch-clamp assay; assay type: cell-based; conditions: HEK-293 cells expressing human cardiac sodium channel SCN5A, pH 7.4, protein-free buffer, read-out: Na, % inh
Protocol: Whole-cell patch-clamp was used to directly measure inward sodium currents in HEK-293 cells expressing the human cardiac sodium channel, SCN5A. After reach steady-state effect in the presence of drug, rate-dependence was assessed by stimulation at frequencies of 1 Hz and 4 Hz. Experiments were carried out using an aqueous buffer at pH 7.4 and at room temperature. There is no protein in the buffer and drug concentrations reported are nominal free drug levels. Test article was evaluated up to 10 μM (protein-free buffer). Rate-dependence of inhibition was assessed by stimulation at frequencies of 1 Hz and 4 Hz.

[3] = Electrocardiography in anesthetized rabbits; assay type: in vivo; conditions: male, blood, anesthetized rabbit, iv
Protocol: (§1) A dose-response study of test compound was conducted in anesthetized rabbits to assess the cardiac electrophysiologic profile established in the cellular ion channel assays.
(§2) Experiments were performed in propofol-fentanyl anesthetized closed-chest male rabbits. A body surface electrocardiogram (ECG) and an intra-cardiac His-bundle electrogram were continuously monitored and recorded during the studies, using a PoNeMah system and a Prucka electrophysiological recording system, respectively. Test compound was prepared on the day of study in a vehicle of PEG400:ethanol:water (1:1:1) at a dosing concentration of 30 mg/mL. Test compound (n=3) or vehicle (n=3) was given intravenously over 5 minutes via an infusion pump at incremental doses of 3, 10 and 30 mg/kg. The interval between doses was 10 minutes, allowing for a 5-minute test agent infusion and a 5-minute rest period. Blood was sampled at baseline (pre-drug infusion) and immediately at the end of each infusion. For the 30 mg/kg dose, additional blood samples were taken at 10, 20 and 30 minutes after the end of infusion.
(§3) PR interval, QRS duration and QT interval were averaged from a 1 minute ECG recording period at time of blood sampling. QT interval was corrected for heart rate effects using both Fridericia (QTcf) and Van der Water (QTcv) formulae. AH and HV intervals, representing A-V node conduction and His-Purkinje conduction, respectively, were assessed by manual measurements from the His-bundle electrogram. Data were expressed as percent change from pre-drug baseline (mean±SEM) for PR, QRS, AH and HV intervals as well as delta change from the pre-drug infusion baseline (mean±SEM) for QTc intervals. Changes of ≧10% in PR, QRS, and AH intervals, and 20% in HV interval, as well as >10 ms in QTc interval are considered significant based on experience with the model.

anesthetized rabbits = assay: Electrocardiography in anesthetized rabbits; assay type: in vivo; conditions: anesthetized rabbit; for Cmax: Free drug at QT effect dose / Cmax: Free drug at NOEL dose: iv
Protocol: as §1, §2, §3

hERG = hERG (Homo sapiens (Human), UniProt Q12809); assay: hERG patch clamp assay; assay type: cell-based; conditions: HEK-293 cells stably expressing hERG, pH 7.4, protein-free buffer, read-out: hERG, % inh @ 30 μM
Protocol: Whole-cell patch-clamp was used to directly measure hERG tail currents in HEK-293 cells stably expressing the cloned hERG potassium channel α subunit. Effects of compounds were calculated by measuring inhibition of peak tail current. Experiments were carried out using an aqueous buffer with pH 7.4 at room temperature. There was no protein in the assay buffer. The test concentrations reported are nominal free drug levels.

[4] = target: human cardiac L-type Ca channel (α1C) and its β subunit (Homo sapiens (Human), UniProt Q13936); assay: L-type calcium channel whole-cell patch-clamp assay; assay type: cell-based; conditions: HEK-293 cells, protein-free buffer
Protocol: In addition to the potential for interaction with the L-type calcium channel, whole-cell patch-clamp was used to directly measure inward calcium currents in HEK-293 cells stably expressing the cloned human cardiac L-type Ca channel (α1C) and its β subunit. Effects of compounds were calculated by measuring inhibition of peak current. Experiments were carried out using an aqueous buffer at pH 7.4 and at room temperature. There is no protein in the buffer and drug concentrations reported are nominal free drug levels.

Human CCR1, sequence (P32246 whole entry): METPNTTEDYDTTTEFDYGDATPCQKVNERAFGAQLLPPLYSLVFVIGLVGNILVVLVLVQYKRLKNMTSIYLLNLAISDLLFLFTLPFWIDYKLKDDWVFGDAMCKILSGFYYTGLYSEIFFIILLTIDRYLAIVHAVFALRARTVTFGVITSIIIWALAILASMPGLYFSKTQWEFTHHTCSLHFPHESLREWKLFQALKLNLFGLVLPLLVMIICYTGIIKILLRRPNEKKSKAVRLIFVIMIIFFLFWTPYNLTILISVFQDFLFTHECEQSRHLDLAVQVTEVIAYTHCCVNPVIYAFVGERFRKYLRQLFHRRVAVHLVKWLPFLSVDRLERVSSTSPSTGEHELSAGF
human cardiac L-type Ca channel (α1C) and its β subunit, sequence (Q13936 whole entry): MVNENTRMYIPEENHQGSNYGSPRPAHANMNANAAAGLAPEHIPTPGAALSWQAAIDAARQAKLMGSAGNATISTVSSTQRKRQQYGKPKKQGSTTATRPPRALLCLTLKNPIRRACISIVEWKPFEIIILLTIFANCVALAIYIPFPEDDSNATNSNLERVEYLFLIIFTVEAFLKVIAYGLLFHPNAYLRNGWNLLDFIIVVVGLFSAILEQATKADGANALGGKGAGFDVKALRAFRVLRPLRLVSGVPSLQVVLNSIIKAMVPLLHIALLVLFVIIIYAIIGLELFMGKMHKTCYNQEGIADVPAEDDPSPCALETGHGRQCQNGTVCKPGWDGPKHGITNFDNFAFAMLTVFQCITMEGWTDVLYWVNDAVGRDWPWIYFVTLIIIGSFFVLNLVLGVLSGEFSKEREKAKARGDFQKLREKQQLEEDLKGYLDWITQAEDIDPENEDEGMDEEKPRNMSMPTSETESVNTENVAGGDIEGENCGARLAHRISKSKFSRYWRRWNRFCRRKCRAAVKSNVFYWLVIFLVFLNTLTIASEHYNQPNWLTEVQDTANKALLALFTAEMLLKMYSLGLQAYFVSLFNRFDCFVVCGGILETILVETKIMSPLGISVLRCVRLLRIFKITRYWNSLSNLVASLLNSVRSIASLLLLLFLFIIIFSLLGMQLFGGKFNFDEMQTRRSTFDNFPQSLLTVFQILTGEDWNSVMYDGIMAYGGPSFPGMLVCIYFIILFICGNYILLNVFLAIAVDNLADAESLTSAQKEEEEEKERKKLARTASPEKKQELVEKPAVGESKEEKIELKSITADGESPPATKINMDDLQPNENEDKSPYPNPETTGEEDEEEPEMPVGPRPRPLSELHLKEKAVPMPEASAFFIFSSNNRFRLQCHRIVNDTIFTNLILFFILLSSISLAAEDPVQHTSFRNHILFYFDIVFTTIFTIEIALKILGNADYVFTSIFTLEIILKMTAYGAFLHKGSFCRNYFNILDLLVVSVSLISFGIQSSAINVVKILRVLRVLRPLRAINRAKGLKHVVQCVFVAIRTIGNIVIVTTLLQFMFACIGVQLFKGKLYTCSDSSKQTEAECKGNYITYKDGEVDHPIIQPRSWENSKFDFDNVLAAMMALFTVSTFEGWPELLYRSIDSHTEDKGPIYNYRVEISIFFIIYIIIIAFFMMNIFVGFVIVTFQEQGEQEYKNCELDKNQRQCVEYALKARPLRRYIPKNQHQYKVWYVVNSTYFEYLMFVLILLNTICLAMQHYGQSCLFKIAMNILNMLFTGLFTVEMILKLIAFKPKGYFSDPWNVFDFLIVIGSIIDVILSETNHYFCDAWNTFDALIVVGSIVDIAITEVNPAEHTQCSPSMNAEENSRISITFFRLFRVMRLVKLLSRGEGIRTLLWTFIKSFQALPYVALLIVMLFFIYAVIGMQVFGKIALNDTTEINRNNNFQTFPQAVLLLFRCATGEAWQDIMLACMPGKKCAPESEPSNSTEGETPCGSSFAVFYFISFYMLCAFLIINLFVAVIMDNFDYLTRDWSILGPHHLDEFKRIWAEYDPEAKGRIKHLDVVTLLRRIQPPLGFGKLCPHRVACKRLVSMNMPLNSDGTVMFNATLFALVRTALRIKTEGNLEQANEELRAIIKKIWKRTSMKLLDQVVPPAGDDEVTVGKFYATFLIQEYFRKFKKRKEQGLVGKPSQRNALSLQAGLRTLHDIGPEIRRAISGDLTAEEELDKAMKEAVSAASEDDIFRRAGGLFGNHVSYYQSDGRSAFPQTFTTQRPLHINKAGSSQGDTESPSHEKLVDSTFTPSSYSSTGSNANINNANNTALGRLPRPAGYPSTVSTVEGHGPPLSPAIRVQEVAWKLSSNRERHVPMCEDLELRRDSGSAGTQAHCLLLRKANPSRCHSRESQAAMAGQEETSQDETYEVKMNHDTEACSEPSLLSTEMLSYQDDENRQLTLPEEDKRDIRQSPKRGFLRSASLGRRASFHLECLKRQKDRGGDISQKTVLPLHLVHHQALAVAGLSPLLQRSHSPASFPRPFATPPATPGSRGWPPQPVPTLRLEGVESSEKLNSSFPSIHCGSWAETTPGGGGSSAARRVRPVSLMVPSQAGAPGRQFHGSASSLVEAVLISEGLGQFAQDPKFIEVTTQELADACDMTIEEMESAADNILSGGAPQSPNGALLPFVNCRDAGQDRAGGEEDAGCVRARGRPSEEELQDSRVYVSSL
human cardiac L-type Ca channel (α1C) and its β subunit, sequence (Q08289 whole entry partner): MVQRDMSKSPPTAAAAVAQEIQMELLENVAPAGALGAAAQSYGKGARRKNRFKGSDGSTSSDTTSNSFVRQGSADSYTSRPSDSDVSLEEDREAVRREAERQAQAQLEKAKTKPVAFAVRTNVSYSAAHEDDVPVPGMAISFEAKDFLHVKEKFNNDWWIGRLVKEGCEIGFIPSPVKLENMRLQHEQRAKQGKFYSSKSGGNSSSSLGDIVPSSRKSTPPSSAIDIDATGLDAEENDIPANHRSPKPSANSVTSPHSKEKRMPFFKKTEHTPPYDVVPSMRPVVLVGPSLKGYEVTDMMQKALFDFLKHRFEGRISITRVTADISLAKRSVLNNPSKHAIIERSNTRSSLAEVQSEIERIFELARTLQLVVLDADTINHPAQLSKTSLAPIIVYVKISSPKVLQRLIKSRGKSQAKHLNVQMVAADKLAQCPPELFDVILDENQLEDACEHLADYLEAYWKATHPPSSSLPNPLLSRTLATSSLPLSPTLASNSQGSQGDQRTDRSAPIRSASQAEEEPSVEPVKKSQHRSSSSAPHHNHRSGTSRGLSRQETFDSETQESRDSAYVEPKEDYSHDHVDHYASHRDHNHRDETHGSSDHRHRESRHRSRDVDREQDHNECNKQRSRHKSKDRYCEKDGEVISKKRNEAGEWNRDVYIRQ
hERG, sequence (Q12809 whole entry): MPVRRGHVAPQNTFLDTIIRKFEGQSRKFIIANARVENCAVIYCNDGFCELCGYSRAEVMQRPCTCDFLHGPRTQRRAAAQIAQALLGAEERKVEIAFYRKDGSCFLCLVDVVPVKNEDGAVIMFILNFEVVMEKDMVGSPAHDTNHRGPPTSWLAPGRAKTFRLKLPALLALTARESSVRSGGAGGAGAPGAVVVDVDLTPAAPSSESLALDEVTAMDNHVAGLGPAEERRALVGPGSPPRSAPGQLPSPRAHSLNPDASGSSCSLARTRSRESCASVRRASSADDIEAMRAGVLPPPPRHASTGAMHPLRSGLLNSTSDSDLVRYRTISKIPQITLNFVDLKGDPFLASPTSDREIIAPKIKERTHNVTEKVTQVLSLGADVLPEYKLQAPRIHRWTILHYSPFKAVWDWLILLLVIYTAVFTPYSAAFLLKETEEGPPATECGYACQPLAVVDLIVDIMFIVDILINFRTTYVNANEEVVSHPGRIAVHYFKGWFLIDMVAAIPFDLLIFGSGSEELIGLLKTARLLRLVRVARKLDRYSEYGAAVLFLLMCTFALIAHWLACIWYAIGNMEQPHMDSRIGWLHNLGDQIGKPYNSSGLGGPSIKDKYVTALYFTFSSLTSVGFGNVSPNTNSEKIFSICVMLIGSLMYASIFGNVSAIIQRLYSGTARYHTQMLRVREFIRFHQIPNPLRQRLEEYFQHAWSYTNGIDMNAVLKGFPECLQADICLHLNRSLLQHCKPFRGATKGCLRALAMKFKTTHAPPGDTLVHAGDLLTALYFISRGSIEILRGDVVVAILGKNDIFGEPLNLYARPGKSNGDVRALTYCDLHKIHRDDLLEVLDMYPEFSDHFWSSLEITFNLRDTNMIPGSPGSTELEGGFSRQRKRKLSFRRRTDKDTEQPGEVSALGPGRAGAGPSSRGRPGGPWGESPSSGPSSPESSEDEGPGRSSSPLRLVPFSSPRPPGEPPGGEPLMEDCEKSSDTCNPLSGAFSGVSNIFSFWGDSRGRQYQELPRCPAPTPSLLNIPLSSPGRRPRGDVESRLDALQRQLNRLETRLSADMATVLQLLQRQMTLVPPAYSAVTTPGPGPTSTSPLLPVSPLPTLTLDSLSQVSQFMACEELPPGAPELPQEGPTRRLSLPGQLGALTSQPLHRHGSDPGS
Human PXR, sequence (O75469 whole entry): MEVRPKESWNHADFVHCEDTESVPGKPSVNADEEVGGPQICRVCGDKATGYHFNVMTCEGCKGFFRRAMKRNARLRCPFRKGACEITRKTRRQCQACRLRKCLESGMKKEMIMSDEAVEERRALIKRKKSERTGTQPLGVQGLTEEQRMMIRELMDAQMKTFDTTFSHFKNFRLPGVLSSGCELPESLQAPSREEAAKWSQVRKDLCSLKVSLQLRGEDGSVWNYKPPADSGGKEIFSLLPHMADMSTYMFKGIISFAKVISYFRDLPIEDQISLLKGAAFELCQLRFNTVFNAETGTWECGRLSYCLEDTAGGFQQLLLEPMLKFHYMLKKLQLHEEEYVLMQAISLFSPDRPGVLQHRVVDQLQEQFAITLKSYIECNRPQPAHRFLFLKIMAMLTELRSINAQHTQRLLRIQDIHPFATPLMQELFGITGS

| PXR EC60 (Human PXR) [µM] | Human Liver Microsomal Metabolism % remaining (Assay Conditions A) [1] | SMILES | Ki (Human CCR1) [nM] | fraction unbound (Protein binding, human) | fraction unbound (Protein binding, rabbit) | inhibition at 10 µM [2] [%] | Cmax ([3]; 30 mg/kg, read-out: Cmax: Total drug at QT effect dose) [µM] | Cmax ([3]; NOEL dose 10 mg/kg, read-out: Cmax: Total drug at NOEL dose) [µM] | NOEL dose (No Observed Effect Level) (anesthetized rabbits; iv infusion) [mg/kg] | QT effect Dose (anesthetized rabbits; iv infusion) [mg/kg] | QTcf, delta (anesthetized rabbits; iv infusion, at QT effect dose 30 mg/kg) [ms] | Cmax: Free drug at QT effect dose (anesthetized rabbits; 30 mg/kg) [µM] | Cmax: Free drug at NOEL dose (anesthetized rabbits; NOEL dose 10 mg/kg) [µM] | inhibition at 30 µM (hERG) [%] | Ca, % inh ([4]; 10 μM) [% @ 10 μM] | Cmax ([3]; 10 mg/kg, read-out: Cmax: Total drug at QT effect dose) [µM] | QTcf, delta (anesthetized rabbits; iv infusion, at QT effect dose 10 mg/kg) [ms] | Cmax: Free drug at QT effect dose (anesthetized rabbits; 10 mg/kg) [µM] | Cmax: Free drug at NOEL dose (anesthetized rabbits; NOEL not identified (<10 mg/kg)) [µM] | Ca, % inh ([4]; 30 μM) [% @ 30 μM] |
| --- | --- | --- | --- | --- | --- | --- | --- | --- | --- | --- | --- | --- | --- | --- | --- | --- | --- | --- | --- | --- |
| 10.2 | 99% (A) | CC(C)NC(=O)N[C@@H](C(=O)N1CC[C@](O)(c2ccc(Cl)cc2)C(C)(C)C1)C(C)C [#850] | 0.5 |  |  |  |  |  |  |  |  |  |  |  |  |  |  |  |  |  |
|  |  | CC(C)[C@@H](NC(=O)c1cccc(S(N)(=O)=O)c1)C(=O)N1CC[C@](O)(c2ccc(Cl)cc2)C(C)(C)C1 [EX# 491] | 2.1 | 0.05 | 0.06 | 13 | 138 | 77 | 10 | 30 | 17 | 5.5 | 3.1 | 27 | 22 |  |  |  |  |  |
| >50 | 59% (A) | CC[C@@H](C)NC(=O)N[C@@H](C(=O)N1CC[C@](O)(c2ccc(Cl)cc2)C(C)(C)C1)C(C)C [#897] | 2.1 |  |  |  |  |  |  |  |  |  |  |  |  |  |  |  |  |  |
|  |  | CC(C)[C@@H](NC(=O)[C@@H]1CC[C@@H](O)C1)C(=O)N1CC[C@](O)(c2ccc(Cl)cc2)C(C)(C)C1 [EX# 572] | 1.5 | 0.16 | 0.13 | 25 |  |  |  | 10 |  |  |  | 32 |  | 48.6 | 22 | 6.3 | < 6.3 | 19 |
